Where two headings read alike, the source gives them in different places.
Experiments:
[1] = Safety and tolerability of a single oral dose of 500 mg COMPOUND 1 in healthy subjects; type: in vivo, human; details: single oral dose of 500 mg, fed and fasted conditions
Procedure: Safety and tolerability were also evaluated for a single oral dose of 500 mg of COMPOUND 1.
Incidence of adverse events and serious adverse events was assessed.

[2] = Food effect on pharmacokinetics of COMPOUND 1 in healthy subjects (phase 1, open-label, randomized, two-period crossover); type: in vivo, human; details: for Tmax / half-life / AUC(0-inf) / AUC(0-t) / Cmax: plasma, single oral dose 500 mg
Procedure: The food effect on COMPOUND 1 PK following administration of a single oral dose of 500 mg of COMPOUND 1 in healthy subjects aged 18-55 years was evaluated in a was a phase 1, open-label, randomized, two-period crossover study.
The study was conducted according to the United States Food and Drug Administration (FDA) 2002 Guidance for Industry “Food-Effect Bioavailability and Fed Bioequivalence Studies”.
Treatments A and B, each comprising a single oral dose of 500 mg of COMPOUND 1, were administered as shown in Table 1. • A (fasted): two 250 mg tablets administered after an overnight fast (approximately 10 hr). • B (fed): two 250 mg tablets administered after a standardized high-fat breakfast, consumed within 30 minutes prior to COMPOUND 1 dosing.
The standardized FDA high-fat content meal contains the equivalent of ˜150 protein calories, ˜250 carbohydrate calories, and ˜500-600 fat calories, and comprises two eggs fried in butter, two strips of bacon, two slices of toast with butter, four ounces of hash brown potatoes (fried with butter), and eight ounces (240 mL) of whole milk.
Of the 30 subjects enrolled, 15 were randomized to sequence AB and 15 were randomized to sequence BA.
Blood samples for the analysis of COMPOUND 1 concentrations were collected predose and 0.5, 1, 2, 3, 4, 6, 9, 12, 24, 48, 72, 120, 168, 240, 336, and 504 hr postdose. Plasma concentrations of COMPOUND 1 were determined using a validated liquid chromatography with tandem mass spectrometry method. PK parameters were calculated using WinNonlin (Pharsight Corporation, Version 6.2.1). Linear mixed model analysis was performed on natural logarithm (In) transformed maximum observed concentration (Cmax), area under the concentration-time curve from Hour 0 to the last measurable concentration (AUC0-t), and area under the concentration-time curve extrapolated to infinity (AUC0-∞). The analyses were performed using the SAS MIXED procedure. […] Inter-subject variability was determined using the geometric coefficient of variation percent (CV %).

[3] = fed condition (test) versus fasted condition (reference), 500 mg, n = 27
[4] = high-fat meal compared with fasted condition, 500 mg single oral dose
[5] = human, po, 500 mg, fasted, n = 29, geometric mean
[6] = human, po, 500 mg, fed (high-fat meal), n = 27, geometric mean

Geometric mean ratio (%) AUC0-t [2, 3]: 125.6%
Geometric mean ratio (%) AUC0-∞ [2, 3]: 124.3%
Geometric mean ratio (%) Cmax [2, 3]: 197.8%
Increase in extent of exposure as assessed by AUC0-t [2, 4]: 25.6%
Increase in extent of exposure as assessed by AUC0-∞ [2, 4]: 24.3%
Increase in mean Cmax [2, 4]: ~2 fold
Increase in AUC ([2]; high-fat meal prior to dosing compared with fasted, 500 mg single oral dose): ~25%
Tmax ([2]; human, po, 500 mg, fasted, n = 29, median, read-out: Tmax): 3 h
Tmax ([2]; human, po, 500 mg, fed (high-fat meal), n = 27, median, read-out: Tmax): 3 h
half-life ([2]; human, po, 500 mg, fasted, n = 29, arithmetic mean): 55.4 h
AUC(0-inf) [2, 5]: 143 µg·h/mL
AUC(0-t) [2, 5]: 136 µg·h/mL
Cmax [2, 5]: 2270 ng/mL
half-life ([2]; human, po, 500 mg, fed (high-fat meal), n = 27, arithmetic mean): 53.2 h
AUC(0-inf) [2, 6]: 174 µg·h/mL
AUC(0-t) [2, 6]: 166 µg·h/mL
Cmax [2, 6]: 4490 ng/mL
Tmax ([2]; fasted, n = 29, median): 3.03 h
SMILES: N#Cc1ccnc(N2C(=O)CC[C@H]2C(=O)N(c2cncc(F)c2)[C@H](C(=O)NC2CC(F)(F)C2)c2ccccc2Cl)c1 [COMPOUND 1, (S)—N—((S)-1-(2-chlorophenyl)-2-((3,3-difluorocyclobutyl)amino)-2-oxoethyl)-1-(4-cyanopyridin-2-yl)-N-(5-fluoropyridin-3-yl)-5-oxopyrrolidine-2-carboxamide]
Safety and tolerability [1]: safe and well tolerated
